Laboratory results from ChEMBL document CHEMBL5385864, “Pose, duplicate, then elaborate: Steps towards increased affinity for inhibitors targeting the specificity surface of the Pim-1 kinase” (Eur J Med Chem, 2023).
pIC50: −log10 of the molar value. Activity calls are given as the source filed them. No cut-off for these calls is given here.

Experiments:
[1] = molecular target: T1, Serine/threonine-protein kinase pim-1 (Homo sapiens, UniProt P11309); assay: Inhibition of Pim-1 in human NCE-G 55T2 cells assessed as reduction in p21 phosphorylation at Thr145 residue at 0.3 mM incubated for 24 hrs by Western blot analysis; format: cell-based
[2] = molecular target: T1, Serine/threonine-protein kinase pim-1; assay: Inhibition of Pim-1 activity (unknown origin) by Eurofins radiometric assay
[3] = molecular target: T1, Serine/threonine-protein kinase pim-1; assay: Inhibition of Pim-1 activity (unknown origin) at 100 uM by Eurofins radiometric assay
[4] = Cytotoxicity against human NCE-G 55T2 cells assessed as inhibition of cell growth incubated for 3 days by WST-8 assay; conditions: NCE-G 55T2, 72 h
HCT-116 = assay: Cytotoxicity against human HCT-116 cells assessed as inhibition of cell growth incubated for 3 days by WST-8 assay; conditions: HCT-116, 72 h
[5] = molecular target: T1, Serine/threonine-protein kinase pim-1; assay: Inhibition of Pim-1 activity (unknown origin) assessed as residual activity at 100 uM by Eurofins radiometric assay relative to control

| SMILES | pIC50 [2] | inhibition [3] | Activity [5] | other results |
| --- | --- | --- | --- | --- |
| Nc1ccc2c(c1)NC(=O)/C2=C/c1ccc(C(=O)O)cc1 | 6.22 | – | – | inhibition [1]: Active |
| COC(=O)c1ccc(/C=C2/C(=O)Nc3cc(N)ccc32)cc1 | – | Active | – | – |
| O=C1Nc2ccccc2/C1=C\c1ccc(C(=O)O)cc1 | – | – | – | pIC50 [4]: 4.00; pIC50 (HCT-116): 3.70 |
| Nc1ccc2c(c1)NC(=O)C2Cc1ccc(C(=O)O)cc1 (centres undefined) | – | Active | – | – |
| Cc1cc(O)cc2occ(Cc3ccc(C(=O)O)cc3)c12 | – | – | < 50% | – |
| O=C(O)c1ccc(Cc2coc3cc(O)ccc23)cc1 | 4.58 | – | < 50% | – |
